The record followed here is patent US5300501A, “Peptidyl derivatives” (Celltech Limited, priority 1990, dated 1994).

Common to all, as to type: biochemical
The target in one assay is T1, Collagenase (Homo sapiens, UniProt P03956).
T1 sequence (P03956 100-469): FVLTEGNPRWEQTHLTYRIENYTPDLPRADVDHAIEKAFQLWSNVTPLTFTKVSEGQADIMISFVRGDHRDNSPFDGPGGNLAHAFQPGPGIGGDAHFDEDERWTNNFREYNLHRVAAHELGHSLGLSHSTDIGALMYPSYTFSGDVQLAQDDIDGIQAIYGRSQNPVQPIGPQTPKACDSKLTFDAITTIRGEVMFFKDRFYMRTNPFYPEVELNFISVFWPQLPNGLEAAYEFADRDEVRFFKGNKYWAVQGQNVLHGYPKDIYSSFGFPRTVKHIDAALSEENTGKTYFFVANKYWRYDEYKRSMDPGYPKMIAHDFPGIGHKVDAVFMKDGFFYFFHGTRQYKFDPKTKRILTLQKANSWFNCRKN
In words: Enzyme inhibition assay (peptide substrate Dnp-Pro-Leu-Gly-Leu-Trp-Ala-D-Arg-NH2, Trp fluorescence), collagenase. The following applies: pH 7.5, overnight, Ki (app) assumed to approximate true Ki.

In a further assay the target is Stromelysin-1 (Homo sapiens, UniProt P08254). In words: Enzyme inhibition assay (peptide substrate Dnp-Pro-Leu-Gly-Leu-Trp-Ala-D-Arg-NH2, Trp fluorescence), stromelysin. The following applies: pH 7.5, overnight, Ki (app) assumed to approximate true Ki.
A further assay concerns the target T2, Gelatinase-72KD (Homo sapiens, UniProt P08253).
T2 sequence (P08253 110-660): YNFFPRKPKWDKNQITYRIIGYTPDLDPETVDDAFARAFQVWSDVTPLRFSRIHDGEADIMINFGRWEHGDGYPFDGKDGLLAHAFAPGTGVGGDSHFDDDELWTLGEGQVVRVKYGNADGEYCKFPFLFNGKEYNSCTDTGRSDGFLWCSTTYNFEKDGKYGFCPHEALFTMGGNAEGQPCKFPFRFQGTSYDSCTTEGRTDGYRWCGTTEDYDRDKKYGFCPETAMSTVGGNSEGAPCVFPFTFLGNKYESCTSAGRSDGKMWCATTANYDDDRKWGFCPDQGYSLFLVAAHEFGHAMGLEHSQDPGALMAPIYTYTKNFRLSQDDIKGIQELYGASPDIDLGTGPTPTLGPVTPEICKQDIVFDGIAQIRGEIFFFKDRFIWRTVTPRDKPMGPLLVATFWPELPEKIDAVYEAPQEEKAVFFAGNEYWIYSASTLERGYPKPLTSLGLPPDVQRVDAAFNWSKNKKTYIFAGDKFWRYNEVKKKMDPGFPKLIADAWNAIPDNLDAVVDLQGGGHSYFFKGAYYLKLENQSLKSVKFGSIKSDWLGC
In words: Enzyme inhibition assay (peptide substrate Dnp-Pro-Leu-Gly-Leu-Trp-Ala-D-Arg-NH2, Trp fluorescence), gelatinase. The settings on record: pH 7.5, overnight; true Ki from plot of Ki (app) vs. [S], y-axis intercept.

[1] abbreviates: value printed in μM in the cell.

Chain of Stromelysin-1 (P08254 100-477, species assumed): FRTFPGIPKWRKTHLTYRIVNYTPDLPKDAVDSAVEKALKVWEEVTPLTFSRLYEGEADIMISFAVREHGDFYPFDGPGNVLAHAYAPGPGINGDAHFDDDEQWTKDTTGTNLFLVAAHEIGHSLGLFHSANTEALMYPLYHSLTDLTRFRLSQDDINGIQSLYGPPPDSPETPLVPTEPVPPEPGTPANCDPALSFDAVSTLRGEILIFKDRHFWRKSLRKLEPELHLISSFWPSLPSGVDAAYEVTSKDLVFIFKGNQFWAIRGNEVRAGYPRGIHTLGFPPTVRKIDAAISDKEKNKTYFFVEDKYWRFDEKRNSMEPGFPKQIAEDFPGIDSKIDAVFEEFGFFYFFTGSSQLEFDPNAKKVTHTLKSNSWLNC
Text for Collagenase: (§1) The enzymes cleave at the Gly-Leu bond which can be followed fluorimetrically by measuring the increase in Trp fluorescence emission associated with the removal of the quenching dinitrophenol (Dnp) group.
(§2) Ki values can be established using the equation for tight-being inhibition: [formula] where Vo is the initial rate of reaction in the absence of inhibitor, Vi is the initial rate in the presence of inhibitor, [E] is the total enzyme concentration and [I] the total inhibitor concentration in the reaction mixture.
(§3) For stromelysin and collagenase, Ki (app) was assumed to approximate to the true Ki as [S]<<Km for the substrate hydrolysis. For gelatinase the Ki was determined by performing the analyses at several substrate concentrations. A plot of Ki (app) vs. [S] then gave the true Ki as the value of the y-axis intercept.
Text for Gelatinase-72KD: as §1, §2, §3
Text for Stromelysin-1: as §1, §2, §3

Turning to `NS(=O)(=O)c1ccc(CCNC(=O)[C@H](CC2CCCCC2)NC(=O)[C@H](CCCc2ccccc2)CC(=O)NO)cc1` [Example 6, [4-(N-Hydroxyamino)-2R-phenylpropylsuccinyl]-L-β-cyclohexyalanine-N-(2-(p-sulphonamidophenyl)ethyl) amide], the Ki at Collagenase worked out at 0.15 µM; on Stromelysin-1, 0.00592 µM; at Gelatinase-72KD, 0.025 nM.

Turning to `O=C(O)C[C@@H](CCCc1ccccc1)C(=O)N[C@@H](CC1CCCCC1)C(=O)NCCc1ccccc1` [Example 15, [4-Hydroxy-2(R)-(3-phenylpropyl)succinnyl]-L-β-cyclohexylalanine-(N-2-phenylethyl) amide], the Ki at Stromelysin-1 was 0.842 µM.

For the compound `O=C(C[C@@H](CCCc1ccccc1)C(=O)N[C@@H](CC1CCCCC1)C(=O)NCCCN1CCOCC1)NO` [Example 12, [4-(N-Hydroxyamino)-2R-phenylpropylsuccinyl]-L-β-cyclohexylalanine-N-[3(4-morpholinyl)propyl] amide], the Ki on Collagenase came to 0.21 µM; on Stromelysin-1, 0.0248 µM; on Gelatinase-72KD, 0.14 nM.

With `COC(=O)CCNC(=O)[C@H](CC1CCCCC1)NC(=O)[C@H](CCCc1ccccc1)CC(=O)O` [Example 16, [4-Hydroxy-2(R)-(3-phenylpropyl)succinyl]-L-β-cyclohexylalanine-β-alanine methyl ester], the Ki was determined as 57 µM on Collagenase (setting [1]), 1.47 µM at Stromelysin-1 (setting [1]) and 6 nM at Gelatinase-72KD.
